Laboratory results published in PubChem BioAssay (NCI).
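96-well plates; 48 h exposure; 5 concentrations. Endpoints by linear interpolation between flanking doses. Not reached: highest tested concentration assigned. Definition used: TGI = concentration required for complete inhibition of growth.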

Legend:
Assay in all cases: inhibition of tumour cell growth, NCI panel, 48 h
786-0 renal = test system: 786-0 renal
A498 renal = test system: A498 renal
A549 NSCLC = test system: A549 NSCLC
ACHN renal = test system: ACHN renal
BT-549 breast = test system: BT-549 breast
CAKI-1 renal = test system: CAKI-1 renal
CCRF-CEM leukemia = test system: CCRF-CEM leukemia
COLO 205 colon = test system: COLO 205 colon
DU-145 prostate = test system: DU-145 prostate
EKVX NSCLC = test system: EKVX NSCLC
HCC-2998 colon = test system: HCC-2998 colon
HCT-116 colon = test system: HCT-116 colon
HCT-15 colon = test system: HCT-15 colon
HL-60(TB) leukemia = test system: HL-60(TB) leukemia
HOP-62 NSCLC = test system: HOP-62 NSCLC
HOP-92 NSCLC = test system: HOP-92 NSCLC
HS 578T breast = test system: HS 578T breast
HT29 colon = test system: HT29 colon
IGROV1 ovarian = test system: IGROV1 ovarian
K-562 leukemia = test system: K-562 leukemia
KM12 colon = test system: KM12 colon
LOX IMVI melanoma = test system: LOX IMVI melanoma
M14 melanoma = test system: M14 melanoma
MALME-3M melanoma = test system: MALME-3M melanoma
MCF7 breast = test system: MCF7 breast
MDA-MB-231 breast = test system: MDA-MB-231 breast
MDA-MB-435 = test system: MDA-MB-435
MDA-N = test system: MDA-N
MOLT-4 leukemia = test system: MOLT-4 leukemia
NCI-H226 lung = test system: NCI-H226 lung
NCI-H23 lung = test system: NCI-H23 lung
NCI-H460 lung = test system: NCI-H460 lung
NCI-H522 lung = test system: NCI-H522 lung
NCI/ADR-RES ovarian = test system: NCI/ADR-RES ovarian
OVCAR-3 ovarian = test system: OVCAR-3 ovarian
OVCAR-4 ovarian = test system: OVCAR-4 ovarian
OVCAR-5 ovarian = test system: OVCAR-5 ovarian
OVCAR-8 ovarian = test system: OVCAR-8 ovarian
PC-3 prostate = test system: PC-3 prostate
RPMI-8226 leukemia = test system: RPMI-8226 leukemia
RXF 393 renal = test system: RXF 393 renal
SF-268 CNS = test system: SF-268 CNS
SF-295 CNS = test system: SF-295 CNS
SF-539 CNS = test system: SF-539 CNS
SK-MEL-2 melanoma = test system: SK-MEL-2 melanoma
SK-MEL-28 melanoma = test system: SK-MEL-28 melanoma
SK-MEL-5 melanoma = test system: SK-MEL-5 melanoma
SK-OV-3 ovarian = test system: SK-OV-3 ovarian
SN12C renal = test system: SN12C renal
SNB-19 CNS = test system: SNB-19 CNS
SNB-75 CNS = test system: SNB-75 CNS
SW-620 colon = test system: SW-620 colon
T-47D breast = test system: T-47D breast
TK-10 renal = test system: TK-10 renal
U251 CNS = test system: U251 CNS
UACC-257 melanoma = test system: UACC-257 melanoma
UACC-62 melanoma = test system: UACC-62 melanoma
UO-31 renal = test system: UO-31 renal
SR leukemia = test system: SR leukemia

CC(C)(C)c1ccc(OCC(=O)O)c(Cl)c1
TGI (786-0 renal): > 100 µM
TGI (A498 renal): > 100 µM
TGI (A549 NSCLC): > 100 µM
TGI (ACHN renal): > 100 µM
TGI (BT-549 breast): > 100 µM
TGI (CAKI-1 renal): > 100 µM
TGI (CCRF-CEM leukemia): > 100 µM
TGI (COLO 205 colon): > 100 µM
TGI (DU-145 prostate): > 100 µM
TGI (EKVX NSCLC): > 100 µM
TGI (HCC-2998 colon): > 100 µM
TGI (HCT-116 colon): > 100 µM
TGI (HCT-15 colon): > 100 µM
TGI (HL-60(TB) leukemia): > 100 µM
TGI (HOP-62 NSCLC): > 100 µM
TGI (HOP-92 NSCLC): > 100 µM
TGI (HS 578T breast): > 100 µM
TGI (HT29 colon): > 100 µM
TGI (IGROV1 ovarian): > 100 µM
TGI (K-562 leukemia): > 100 µM
TGI (KM12 colon): > 100 µM
TGI (LOX IMVI melanoma): > 100 µM
TGI (M14 melanoma): > 100 µM
TGI (MALME-3M melanoma): > 100 µM
TGI (MCF7 breast): > 100 µM
TGI (MDA-MB-231 breast): > 100 µM
TGI (MDA-MB-435): > 100 µM
TGI (MDA-N): > 100 µM
TGI (MOLT-4 leukemia): > 100 µM
TGI (NCI-H226 lung): > 100 µM
TGI (NCI-H23 lung): > 100 µM
TGI (NCI-H460 lung): > 100 µM
TGI (NCI-H522 lung): > 100 µM
TGI (NCI/ADR-RES ovarian): > 100 µM
TGI (OVCAR-3 ovarian): > 100 µM
TGI (OVCAR-4 ovarian): > 100 µM
TGI (OVCAR-5 ovarian): > 100 µM
TGI (OVCAR-8 ovarian): > 100 µM
TGI (PC-3 prostate): > 100 µM
TGI (RPMI-8226 leukemia): > 100 µM
TGI (RXF 393 renal): > 100 µM
TGI (SF-268 CNS): > 100 µM
TGI (SF-295 CNS): > 100 µM
TGI (SF-539 CNS): > 100 µM
TGI (SK-MEL-2 melanoma): > 100 µM
TGI (SK-MEL-28 melanoma): > 100 µM
TGI (SK-MEL-5 melanoma): > 100 µM
TGI (SK-OV-3 ovarian): > 100 µM
TGI (SN12C renal): > 100 µM
TGI (SNB-19 CNS): > 100 µM
TGI (SNB-75 CNS): > 100 µM
TGI (SW-620 colon): > 100 µM
TGI (T-47D breast): > 100 µM
TGI (TK-10 renal): > 100 µM
TGI (U251 CNS): > 100 µM
TGI (UACC-257 melanoma): > 100 µM
TGI (UACC-62 melanoma): > 100 µM
TGI (UO-31 renal): > 100 µM

Cc1c(C#N)c(N)n(C2OCC(O)C(O)C2O)c(=S)c1C#N (centres undefined)
TGI (786-0 renal): > 100 µM
TGI (A498 renal): > 100 µM
TGI (A549 NSCLC): > 100 µM
TGI (ACHN renal): > 100 µM
TGI (BT-549 breast): > 100 µM
TGI (CAKI-1 renal): > 100 µM
TGI (CCRF-CEM leukemia): > 100 µM
TGI (DU-145 prostate): > 100 µM
TGI (HCC-2998 colon): > 100 µM
TGI (HCT-15 colon): > 100 µM
TGI (HL-60(TB) leukemia): > 100 µM
TGI (HOP-62 NSCLC): > 100 µM
TGI (HS 578T breast): > 100 µM
TGI (HT29 colon): > 100 µM
TGI (IGROV1 ovarian): > 100 µM
TGI (K-562 leukemia): > 100 µM
TGI (KM12 colon): > 100 µM
TGI (LOX IMVI melanoma): > 100 µM
TGI (M14 melanoma): > 100 µM
TGI (MALME-3M melanoma): > 100 µM
TGI (MCF7 breast): > 100 µM
TGI (MDA-MB-231 breast): > 100 µM
TGI (MDA-MB-435): > 100 µM
TGI (MDA-N): > 100 µM
TGI (MOLT-4 leukemia): > 100 µM
TGI (NCI-H226 lung): > 100 µM
TGI (NCI-H23 lung): > 100 µM
TGI (NCI-H460 lung): > 100 µM
TGI (NCI-H522 lung): > 100 µM
TGI (NCI/ADR-RES ovarian): > 100 µM
TGI (OVCAR-3 ovarian): > 100 µM
TGI (OVCAR-5 ovarian): > 100 µM
TGI (OVCAR-8 ovarian): > 100 µM
TGI (PC-3 prostate): > 100 µM
TGI (RPMI-8226 leukemia): > 100 µM
TGI (RXF 393 renal): > 100 µM
TGI (SF-268 CNS): > 100 µM
TGI (SF-295 CNS): > 100 µM
TGI (SF-539 CNS): > 100 µM
TGI (SK-MEL-2 melanoma): > 100 µM
TGI (SK-MEL-28 melanoma): > 100 µM
TGI (SK-MEL-5 melanoma): > 100 µM
TGI (SK-OV-3 ovarian): > 100 µM
TGI (SN12C renal): > 100 µM
TGI (SNB-19 CNS): > 100 µM
TGI (SNB-75 CNS): > 100 µM
TGI (SR leukemia): > 100 µM
TGI (SW-620 colon): > 100 µM
TGI (T-47D breast): > 100 µM
TGI (TK-10 renal): > 100 µM
TGI (UACC-257 melanoma): > 100 µM
TGI (UACC-62 melanoma): > 100 µM
TGI (UO-31 renal): > 100 µM

c1ccc(C2=Nn3c(CCCCCCCCc4nnc5n4N=C(c4ccccc4)CS5)nnc3SC2)cc1
TGI (786-0 renal): 33.2 µM
TGI (A498 renal): > 96.1 µM
TGI (A549 NSCLC): > 100 µM
TGI (ACHN renal): > 100 µM
TGI (BT-549 breast): > 100 µM
TGI (CAKI-1 renal): > 100 µM
TGI (CCRF-CEM leukemia): > 59.7 µM
TGI (COLO 205 colon): > 100 µM
TGI (DU-145 prostate): > 100 µM
TGI (EKVX NSCLC): > 100 µM
TGI (HCC-2998 colon): > 100 µM
TGI (HCT-116 colon): > 100 µM
TGI (HCT-15 colon): > 100 µM
TGI (HOP-62 NSCLC): 44 µM
TGI (HOP-92 NSCLC): > 82.3 µM
TGI (HS 578T breast): > 100 µM
TGI (HT29 colon): > 50.6 µM
TGI (IGROV1 ovarian): > 100 µM
TGI (K-562 leukemia): > 79.7 µM
TGI (KM12 colon): > 100 µM
TGI (LOX IMVI melanoma): > 100 µM
TGI (M14 melanoma): > 100 µM
TGI (MALME-3M melanoma): > 89.6 µM
TGI (MCF7 breast): > 100 µM
TGI (MDA-MB-231 breast): 80.6 µM
TGI (MDA-MB-435): > 100 µM
TGI (MDA-N): > 100 µM
TGI (MOLT-4 leukemia): > 77.9 µM
TGI (NCI-H226 lung): > 100 µM
TGI (NCI-H23 lung): > 100 µM
TGI (NCI-H460 lung): > 100 µM
TGI (NCI-H522 lung): > 100 µM
TGI (NCI/ADR-RES ovarian): > 100 µM
TGI (OVCAR-3 ovarian): > 100 µM
TGI (OVCAR-4 ovarian): > 100 µM
TGI (OVCAR-5 ovarian): > 100 µM
TGI (OVCAR-8 ovarian): > 100 µM
TGI (PC-3 prostate): > 100 µM
TGI (RPMI-8226 leukemia): > 100 µM
TGI (RXF 393 renal): 67.5 µM
TGI (SF-268 CNS): > 81.8 µM
TGI (SF-295 CNS): 55.3 µM
TGI (SF-539 CNS): 46.4 µM
TGI (SK-MEL-2 melanoma): > 88.7 µM
TGI (SK-MEL-28 melanoma): > 100 µM
TGI (SK-MEL-5 melanoma): > 100 µM
TGI (SK-OV-3 ovarian): 85.6 µM
TGI (SN12C renal): > 100 µM
TGI (SNB-19 CNS): 43.3 µM
TGI (SNB-75 CNS): 33.6 µM
TGI (SR leukemia): > 100 µM
TGI (SW-620 colon): > 100 µM
TGI (T-47D breast): > 100 µM
TGI (TK-10 renal): 79 µM
TGI (U251 CNS): 36.8 µM
TGI (UACC-257 melanoma): > 100 µM
TGI (UACC-62 melanoma): > 100 µM
TGI (UO-31 renal): > 100 µM
